Values quoted from earlier work as cited in US8028928B2, “Spreader apparatus for sand based formulations” (priority 2007, dated 2011).

Test system: S. homoeocarpa
Conditions: bent grass blend Cato:Crenshaw (50:50); high disease pressure

CSC(=O)c1cccc2nnsc12 [ASM, acibenzolar-5-methyl]
Reduction of number of S. homoeocarpa infection centers: 38%
